# PubChem BioAssay AID743402 (Broad Institute, 2014)
# Test system: FRT CFTR-F508del YFP iodide quenching, 24 h
# Assay: CFTR-F508del correctors, dose response, FRT cells, YFP quenching, cherry-pick (AID 743402);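 note: compounds act as correctors raising surface CFTR-F508del before acute activation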
# Details: not given
row,Structure (SMILES),AC35
1,C=C1C(=O)O[C@@H]2C[C@@H](C)[C@@H]3C=CC(=O)[C@@]3(C)[C@@H](O)[C@H]12,5.32 µM
2,Nc1ccc2ccc3cccc[n+]3c2c1,7.53 µM

# Same assay, conditions: channel opened with forskolin and a potentiator
row,Structure (SMILES),AC35
1,CC1(S(=O)(=O)O)CC(=O)c2ccccc2C1=O (stereo not given),6 µM
2,CN1c2ccc(-c3ccc(F)cc3)cc2[C@H]2[C@H](CCN2S(=O)(=O)c2ccc(F)cc2)[C@H]1CO,21.9 µM
3,O=C(C1CCCC1)N1CC(=O)N2[C@H](CO)[C@@H](c3ccc(-c4ccccc4F)cc3)[C@@H]2C1,22.2 µM
4,O=C1/C(=C\c2cc(Cl)c(O)c(Cl)c2)SC(=S)N1Cc1ccccc1,0.214 µM
5,N#Cc1ccc(-c2ccc(C3[C@@H]4CN(C(=O)C5CCC5)C[C@H]3N4)cc2)cc1 (stereo not given in full),22.1 µM
6,Cc1ccc(S(=O)(=O)Nc2ccc3c(c2)CC(=O)N([C@@H](C)CO)C[C@@H](C)[C@@H](CN(C)Cc2ccc(Cl)c(Cl)c2)O3)cc1,22.6 µM
7,CCN1/C(=C\c2ccc3cc(C)ccc3[n+]2CC)Sc2cc(C)c(C)cc21,1.02 µM
8,CCN1/C(=C/c2ccc3cc(C)cc(C)c3[n+]2CC)Sc2cc(C)ccc21,1.05 µM
9,CCOC(=O)/C(=C/C=C1\Sc2cc(C)c(C)cc2N1CC)C(C)=O,3.13 µM
10,CN1C(=O)c2cccc3c(N)ccc(c23)C1=O,2.62 µM
11,CC(=O)OCCn1c2nc(=O)[nH]c(=O)c-2nc2cc(C)c(C)cc21,1.37 µM
12,COc1ccc(/C=N/NC(=O)c2cccnc2)cc1CSc1ccccn1,8.21 µM
13,CCCOc1cc(N(CC)CC)ccc1/C=C(/C#N)c1nc2ccc(C)cc2[nH]1,0.505 µM
14,COc1ccc(S(=O)(=O)N2CC[C@@H]3[C@H](CO)N(C)c4ccc(-c5ccc(F)cc5)cc4[C@@H]32)cc1,15.3 µM
15,CC(C)n1cc(/C=C/c2cc[n+](C)cc2)c2ccccc21,0.752 µM
16,CNc1c2cccc(C)c2nc2c(C(=O)NCCN(C)C)cccc12,10.5 µM
17,CC(C)N1CCc2c(sc(NC(=O)c3ccc([N+](=O)[O-])o3)c2C(N)=O)C1,6.42 µM
18,CCOC1=C/C(=C/c2c(N)n3nc(S(=O)(=O)CC)sc3nc2=O)C=CC1=O,9.92 µM
19,Cc1cc(Nc2ccc(Br)cc2)nc2ccccc12,8.45 µM
20,CN1/C(=C\C=C2/SC(=S)NC2=O)C(C)(C)c2ccccc21,2.6 µM
21,CCCCN1C(=O)/C(=C/C=C2\Oc3ccccc3N2CC)SC1=S,1.64 µM
22,COc1cc(/C=C2/SC(=S)N(Cc3ccccc3)C2=O)cc(Cl)c1O,3.7 µM
23,Cc1ccc(N2C(=O)c3cccc4c([N+](=O)[O-])ccc(c34)C2=O)c2cccnc12,4.81 µM
24,CC(=O)Oc1ccc(N2C(=O)c3cccc4c([N+](=O)[O-])ccc(c34)C2=O)cc1,8.38 µM
25,C=C1SC(Nc2c(C)cc(C)cc2C)=NC12CCCCC2,3.59 µM
26,CC(=O)Nc1ccc2cc3ccc(NC(C)=O)cc3nc2c1,3.98 µM
27,COc1cccc2c1C(=O)C=C(C)C2=O,6.68 µM
28,COc1cccc2c1C(=O)c1c(O)c3c(c(O)c1C2=O)CC(O)(C(C)=O)CC3OC1CC(N(C)C)C(O)C(C)O1 (stereo not given),1.03 µM
